Reference: US20170275298A1, “INHIBITORS OF THE RENAL OUTER MEDULLARY POTASSIUM CHANNEL” (Merck Sharp & Dohme Corp., priority 2014, published 2017)

molecular target: T1, hROMK (hKir1.1) (Homo sapiens, UniProt P48048); assay: Thallium Flux Assay (ROMK channel functional thallium flux assay); assay type: cell-based; conditions: HEK293 cells stably expressing hROMK (hKir1.1); FluxOR thallium flux, FLIPR-Tetra, 30 min compound incubation; read-out: ROMK TI IC50
T1 construct: expressed in transfected cells
T1 sequence (P48048 1-391): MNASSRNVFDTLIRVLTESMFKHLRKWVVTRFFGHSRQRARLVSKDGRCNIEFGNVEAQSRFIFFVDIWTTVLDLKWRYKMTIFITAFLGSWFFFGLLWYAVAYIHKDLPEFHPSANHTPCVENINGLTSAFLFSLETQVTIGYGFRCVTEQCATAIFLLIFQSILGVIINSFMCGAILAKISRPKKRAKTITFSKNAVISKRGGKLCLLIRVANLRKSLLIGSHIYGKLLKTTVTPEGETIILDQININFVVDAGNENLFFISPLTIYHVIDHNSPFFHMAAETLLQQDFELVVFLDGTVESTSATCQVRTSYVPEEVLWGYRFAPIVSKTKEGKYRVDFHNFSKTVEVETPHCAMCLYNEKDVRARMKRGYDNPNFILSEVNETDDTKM
Procedure, shortened: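 HEK293 cells stably expressing hROMK (hKir1.1) loaded with FluxOR dye 90 min at ambient temperature, then compound 30 min before thallium/potassium stimulant (final 3 mM Tl/0.3 mM K). ROMK-sensitive flux defined by 3 μM standard inhibitor; data as % fluorescence change.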

IC50 [nM] | SMILES
55.7 | COc1cc(N2CCC3(CCN(C[C@H](O)c4ccc5c(c4C)COC5=O)CC3)C2=O)ccn1 [Example 74, (R)-8-(2-hydroxy-2-(4-methyl-1-oxo-1,3-dihydroisobenzofuran-5-yl)ethyl)-2-(2-methoxypyridin-4-yl)-2,8-diazaspiro[4.5]decan-1-one]
320 | Cc1c([C@@H](O)CN2CCC3(CC2)CCN(c2ccc(OC(F)F)nc2)C3=O)ccc2c1COC2=O [Example 76, (R)-2-(6-(difluoromethoxy)pyridin-3-yl)-8-(2-hydroxy-2-(4-methyl-1-oxo-1,3-dihydroisobenzofuran-5-yl)ethyl)-2,8-diazaspiro[4.5]decan-1-one]
697 | COc1ccncc1N1CCC2(CCN(C[C@H](O)c3ccc4c(c3C)COC4=O)CC2)C1=O [Example 77, (R)-8-(2-hydroxy-2-(4-methyl-1-oxo-1,3-dihydroisobenzofuran-5-yl)ethyl)-2-(4-methoxypyridin-3-yl)-2,8-diazaspiro[4.5]decan-1-one]
56.7 | Cc1c([C@@H](O)CN2CCC3(CC2)CC(=O)N(c2ccncc2)C3)ccc2c1COC2=O [Example 79, (R)-8-(2-hydroxy-2-(4-methyl-1-oxo-1,3-dihydroisobenzofuran-5-yl)ethyl)-2-(pyridin-4-yl)-2,8-diazaspiro[4.5]decan-3-one]
14.3 | COc1nccc(N2CCC3(CCN(C[C@H](O)c4ccc5c(c4C)COC5=O)CC3)C2=O)n1 [Example 80, (R)-8-(2-hydroxy-2-(4-methyl-1-oxo-1,3-dihydroisobenzofuran-5-yl)ethyl)-2-(2-methoxypyrimidin-4-yl)-2,8-diazaspiro[4.5]decan-1-one]
175 | Cc1cc(N2CCCC3(CCN(C[C@H](O)c4ccc5c(c4C)COC5=O)CC3)C2=O)sn1 [Example 81, (R)-9-(2-hydroxy-2-(4-methyl-1-oxo-1,3-dihydroisobenzofuran-5-yl)ethyl)-2-(3-methylisothiazol-5-yl)-2,9-diazaspiro[5.5]undecan-1-one]
424 | Cc1c([C@@H](O)CN2CCC3(CC2)CCN(c2ccc(=O)n(C)c2)C3=O)ccc2c1COC2=O [Example 82, (R)-8-(2-hydroxy-2-(4-methyl-1-oxo-1,3-dihydroisobenzofuran-5-yl)ethyl)-2-(1-methyl-6-oxo-1,6-dihydropyridin-3-yl)-2,8-diazaspiro[4.5]decan-1-one]
832 | Cc1c([C@@H](O)CN2CCC3(CC2)CCN(c2nc(CO)ns2)C3=O)ccc2c1COC2=O [Example 83, (R)-8-(2-hydroxy-2-(4-methyl-1-oxo-1,3-dihydroisobenzofuran-5-yl)ethyl)-2-(3-(hydroxymethyl)-1,2,4-thiadiazol-5-yl)-2,8-diazaspiro[4.5]decan-1-one]
149 | COc1cc(N2CC3(CCN(C[C@H](O)c4ccc5c(c4C)COC5=O)CC3)CC2=O)ccn1 [Example 84, (R)-8-(2-hydroxy-2-(4-methyl-1-oxo-1,3-dihydroisobenzofuran-5-yl)ethyl)-2-(2-methoxypyridin-4-yl)-2,8-diazaspiro[4.5]decan-3-one]
801 | Cc1c([C@@H](O)CN2CCC3(CCCN(c4ccncc4)C3=O)CC2)ccc2c1COC2=O [Example 85, (R)-9-(2-hydroxy-2-(4-methyl-1-oxo-1,3-dihydroisobenzofuran-5-yl)ethyl)-2-(pyridin-4-yl)-2,9-diazaspiro[5.5]undecan-1-one]
561 | Cc1c([C@@H](O)CN2CCC3(CC2)CN(c2ccncc2)C(=O)O3)ccc2c1COC2=O [Example 86, (R)-8-(2-hydroxy-2-(4-methyl-1-oxo-1,3-dihydroisobenzofuran-5-yl)ethyl)-3-(pyridin-4-yl)-1-oxa-3,8-diazaspiro[4.5]decan-2-one]
643 | Cc1c([C@@H](O)CN2CCC3(CC2)CCN(c2cc(C(F)(F)F)ncn2)C3=O)ccc2c1COC2=O [Example 87, (R)-8-(2-hydroxy-2-(4-methyl-1-oxo-1,3-dihydroisobenzofuran-5-yl)ethyl)-2-(6-(trifluoromethyl)pyrimidin-4-yl)-2,8-diazaspiro[4.5]decan-1-one]
130 | Cc1cc(N2CCC3(CCN(C[C@H](O)c4ccc5c(c4C)COC5=O)CC3)C2=O)ccn1 [Example 88, (R)-8-(2-hydroxy-2-(4-methyl-1-oxo-1,3-dihydroisobenzofuran-5-yl)ethyl)-2-(2-methylpyridin-4-yl)-2,8-diazaspiro[4.5]decan-1-one]
787 | COc1nccc(N2CCC3(CCN(C[C@H](O)c4ccc(-n5cnnn5)nc4C)CC3)C2=O)n1 [Example 89, (R)-8-(2-hydroxy-2-(2-methyl-6-(1H-tetrazol-1-yl)pyridin-3-yl)ethyl)-2-(2-methoxypyrimidin-4-yl)-2,8-diazaspiro[4.5]decan-1-one]
120 | Cc1c([C@@H](O)CN2CCC3(CC2)CCN(c2ccnnc2)C3=O)ccc2c1COC2=O [Example 90, (R)-8-(2-hydroxy-2-(4-methyl-1-oxo-1,3-dihydroisobenzofuran-5-yl)ethyl)-2-(pyridazin-4-yl)-2,8-diazaspiro[4.5]decan-1-one]
775 | Cc1c([C@@H](O)CN2CCC3(CC2)CC(=O)N(c2ccnc(Cl)n2)C3)ccc2c1COC2=O [Example 91, (R)-2-(2-chloropyrimidin-4-yl)-8-(2-hydroxy-2-(4-methyl-1-oxo-1,3-dihydroisobenzofuran-5-yl)ethyl)-2,8-diazaspiro[4.5]decan-3-one]
110 | Cc1c([C@@H](O)CN2CCC3(CC2)CCN(c2ccnc(Cl)n2)C3=O)ccc2c1COC2=O [Example 92, (R)-2-(2-chloropyrimidin-4-yl)-8-(2-hydroxy-2-(4-methyl-1-oxo-1,3-dihydroisobenzofuran-5-yl)ethyl)-2,8-diazaspiro[4.5]decan-1-one]
259 | Cc1nc(-n2cnnn2)ccc1[C@@H](O)CN1CCC2(CC1)CCN(c1ccc(=O)n(C)n1)C2=O [Example 93, (R)-8-(2-hydroxy-2-(2-methyl-6-(1H-tetrazol-1-yl)pyridin-3-yl)ethyl)-2-(1-methyl-6-oxo-1,6-dihydropyridazin-3-yl)-2,8-diazaspiro[4.5]decan-1-one]
272 | Cc1c([C@@H](O)CN2CCC3(CC2)CCN(c2cn(C)c(=O)cn2)C3=O)ccc2c1COC2=O [Example 94, (R)-8-(2-hydroxy-2-(4-methyl-1-oxo-1,3-dihydroisobenzofuran-5-yl)ethyl)-2-(4-methyl-5-oxo-4,5-dihydropyrazin-2-yl)-2,8-diazaspiro[4.5]decan-1-one]
488 | Cc1c([C@@H](O)CN2CCC3(CC2)CN(c2ccc(=O)n(C)n2)C(=O)O3)ccc2c1COC2=O [Example 95, (R)-8-(2-hydroxy-2-(4-methyl-1-oxo-1,3-dihydroisobenzofuran-5-yl)ethyl)-3-(1-methyl-6-oxo-1,6-dihydropyridazin-3-yl)-1-oxa-3,8-diazaspiro[4.5]decan-2-one]
702 | Cn1nc(N2CCC3(CCN(C[C@@H](O)c4cccc(-n5cnnn5)c4)CC3)C2=O)ccc1=O [Example 96, (S)-8-(2-(3-(1H-tetrazol-1-yl)phenyl)-2-hydroxyethyl)-2-(1-methyl-6-oxo-1,6-dihydropyridazin-3-yl)-2,8-diazaspiro[4.5]decan-1-one]
378 | Cc1c([C@@H](O)CN2CCC3(CC2)C[C@H](C)N(c2ccc(=O)n(C)n2)C3=O)ccc2c1COC2=O [Example 97, (S)-8-((R)-2-hydroxy-2-(4-methyl-1-oxo-1,3-dihydroisobenzofuran-5-yl)ethyl)-3-methyl-2-(1-methyl-6-oxo-1,6-dihydropyridazin-3-yl)-2,8-diazaspiro[4.5]decan-1-one]
54.7 | Cc1c([C@@H](O)CN2CCC3(CC2)C[C@@H](C)N(c2ccc(=O)n(C)n2)C3=O)ccc2c1COC2=O [Example 98, (R)-8-((R)-2-hydroxy-2-(4-methyl-1-oxo-1,3-dihydroisobenzofuran-5-yl)ethyl)-3-methyl-2-(1-methyl-6-oxo-1,6-dihydropyridazin-3-yl)-2,8-diazaspiro[4.5]decan-1-one]
242 | Cc1nc(-n2cnnn2)ccc1[C@@H](O)CN1CCC2(CC1)CCN(c1ncns1)C2=O [Example 99, (R)-8-(2-hydroxy-2-(2-methyl-6-(1H-tetrazol-1-yl)pyridin-3-yl)ethyl)-2-(1,2,4-thiadiazol-5-yl)-2,8-diazaspiro[4.5]decan-1-one]
769 | O=C1N(c2ccns2)CCC12CCN(C[C@H](O)c1ccc(-n3cnnn3)nc1)CC2 [Example 100, (R)-8-(2-(6-(1H-tetrazol-1-yl)pyridin-3-yl)-2-hydroxyethyl)-2-(isothiazol-5-yl)-2,8-diazaspiro[4.5]decan-1-one]
203 | O=C1N(c2ccns2)CCC12CCN(C[C@@H](O)c1ccc(-n3cnnn3)nc1)CC2 [Example 101, (S)-8-(2-(6-(1H-tetrazol-1-yl)pyridin-3-yl)-2-hydroxyethyl)-2-(isothiazol-5-yl)-2,8-diazaspiro[4.5]decan-1-one]
349 | Cc1c([C@@H](O)CN2CCC3(CC2)OCCN(c2ccc(=O)n(C)n2)C3=O)ccc2c1COC2=O [Example 102, (R)-9-(2-hydroxy-2-(4-methyl-1-oxo-1,3-dihydroisobenzofuran-5-yl)ethyl)-4-(1-methyl-6-oxo-1,6-dihydropyridazin-3-yl)-1-oxa-4,9-diazaspiro[5.5]undecan-5-one]
